Measurements: patent publication US8288379B2, “Thia-triaza-cyclopentazulenes” (Boehringer Ingelheim International GmbH, priority 2009, dated 2012)

Experiments:
FRAP1 (mTOR) kinase = biological target: T1, FRAP1 (mTOR) kinase (Homo sapiens, UniProt P42345); assay: Inhibition of mTOR-induced p-4E-BP1 phosphorylation (TR-FRET mTOR Activity Kit; Invitrogen); format: biochemical; settings: 400 nM GFP-4E-BP1 substrate, ~150 ng/mL mTOR, one hour at room temperature
T1 construct: purchased Invitrogen PV4753
Text: Inhibition of mTOR-Induced p-4E-BP1 Phosphorylation (TR-FRET mTOR Activity Kit; Invitrogen)
• GFP-4E-BP1 substrate; Invitrogen order no. PV4759 • Lanthascreen Tb-anti-p4E-BP1 (pThr46) Antibody Kit; Invitrogen order no. PV4758 • FRAP1 (mTOR) kinase; Invitrogen order no. […] Preparation of Reagents: Note: Thaw and keep mTOR, the substrate, ATP, and the antibody on ice prior to making working dilutions. Working dilutions of these components can be kept at room temperature for short periods of time the day of use. 1. Add 2 ml of 5× Assay Buffer to 8 ml water to prepare 10 ml of 1× Assay Buffer. Note: The concentration of 1× Assay Buffer is 50 mM HEPES pH 7.5, 0.01% Polysorbate 20, 1 mM EGTA, and 10 mM MnCl2. 2. Prepare Antibody/EDTA Solution by first adding 2.75 n1 of Tb-anti p4E-BP1 Antibody to 2397 n1 of LanthaScreen™ TR-FRET Dilution Buffer. Then, add 100 n1 of 0.5 M EDTA. 3. Prepare 4× Substrate/Enzyme Solution by first adding 72 n1 of GFP-4E-BP1 (22 nM) to 926 n1 of 1× Assay Buffer. Then, add 1.6 n1 of mTOR (0.45 mg/mL). 4. Prepare ATP Solution by adding 3.2 n1 of 10 mM ATP to 1997 n1 of 1× Assay Buffer. Serial Dilution of Inhibitors (16 Point Curve): Note: It is recommended that inhibitors be serially diluted in DMSO, then diluted to a 4× working concentration with 1× Assay Buffer. The below procedure describes dilution of compounds in a 96-well format prior to transfer to a 384-well format for kinase assays. This procedure calls for dilution of the compounds in 2 adjacent columns of a 96-well plate, which upon transfer to a single column of a 384-well plate with an 8-channel pipette will align the samples in order of concentration. 1. Dispense 40 n1 of DMSO to two adjacent columns of a 96 well plate per compound (e.g. columns 1 and 2). 2. Add 10 n1 of inhibitor stock (10 mM) to the first well of the first column (A1) and mix. 3. Remove 10 n1 from A1 and transfer to the adjacent well in the next column (B1) and mix. 4. Remove 10 n1 from B1 and transfer to the next well in the first column (B2) and mix. 5. Repeat this dilution pattern through well H1 and leave the last well (H2) as DMSO only. 6. Remove 4 n1 of diluted compounds and add to 96 n1 of 1× Assay Buffer in a 96-well plate making 4× compound dilutions. Kinase Reaction: 1. Add 2.5 μl of 4× compound dilutions from the first column of the 96-well plate to every other well of column 1 of a 384-well plate with an 8-channel pipette. Repeat for columns 2 and 3. 2. Add 2.5 n1 of 4× compound dilutions from the second column of the 96-well plate to the empty wells of column 1 of the 384-well plate with an 8-channel pipette. Repeat for columns 2 and 3. Note: This procedure aligns the compound dilutions in order of concentration. 3. Add 2.5 n1 of 4× Enzyme/Substrate Solution to all columns 1-6. 4. Preincubate for 30 min. at RT (shaker). 5. Add 5 n1 of ATP Solution to all wells to start reactions. 6. Shake the assay plate on a plate shaker for 30 seconds. 7. Incubate the assay plate for one hour at room temperature (20-25° C.). Stop Step and Fluorescence Detection: 1. Add 10 n1 of Antibody/EDTA Solution to each well in columns 1-9. 2. Shake the assay plate on a plate shaker for 30 seconds. 3. Incubate the assay plate for one hour at room temperature (20-25° C.). 4. Measure the GFP (FRET) and terbium (reference) emission signals on a fluorescence plate reader (e.g. Perkin Elmer Envision). Data Analysis: 1. Calculate the emission ratio for each sample by dividing the GFP (FRET) signal by the terbium (reference) signal. 2. Plot the concentration of each compound versus the emission ratio. Determine the concentration of compound required to reach 50% of the maximum signal (IC50). Determination of IC50 values can be obtained by curve fitting (sigmoidal dose response, variable slope) using Prism software from GraphPad). Inhibition of Proliferation: CyQuant PC-3 Description: […]

PC-3 cells = assay: Inhibition of proliferation: CyQuant PC-3; format: cell-based; settings: 72 h; PC-3 human prostate carcinoma cells, incubated with compounds for 3 days, CyQuant NF DNA dye
Protocol: • GFP-4E-BP1 substrate; Invitrogen order no. PV4759 • Lanthascreen Tb-anti-p4E-BP1 (pThr46) Antibody Kit; Invitrogen order no. PV4758 • FRAP1 (mTOR) kinase; Invitrogen order no. […] Preparation of Reagents: Note: Thaw and keep mTOR, the substrate, ATP, and the antibody on ice prior to making working dilutions. Working dilutions of these components can be kept at room temperature for short periods of time the day of use. 1. Add 2 ml of 5× Assay Buffer to 8 ml water to prepare 10 ml of 1× Assay Buffer. Note: The concentration of 1× Assay Buffer is 50 mM HEPES pH 7.5, 0.01% Polysorbate 20, 1 mM EGTA, and 10 mM MnCl2. 2. Prepare Antibody/EDTA Solution by first adding 2.75 n1 of Tb-anti p4E-BP1 Antibody to 2397 n1 of LanthaScreen™ TR-FRET Dilution Buffer. Then, add 100 n1 of 0.5 M EDTA. 3. Prepare 4× Substrate/Enzyme Solution by first adding 72 n1 of GFP-4E-BP1 (22 nM) to 926 n1 of 1× Assay Buffer. Then, add 1.6 n1 of mTOR (0.45 mg/mL). 4. Prepare ATP Solution by adding 3.2 n1 of 10 mM ATP to 1997 n1 of 1× Assay Buffer. Serial Dilution of Inhibitors (16 Point Curve): Note: It is recommended that inhibitors be serially diluted in DMSO, then diluted to a 4× working concentration with 1× Assay Buffer. The below procedure describes dilution of compounds in a 96-well format prior to transfer to a 384-well format for kinase assays. This procedure calls for dilution of the compounds in 2 adjacent columns of a 96-well plate, which upon transfer to a single column of a 384-well plate with an 8-channel pipette will align the samples in order of concentration. 1. Dispense 40 n1 of DMSO to two adjacent columns of a 96 well plate per compound (e.g. columns 1 and 2). 2. Add 10 n1 of inhibitor stock (10 mM) to the first well of the first column (A1) and mix. 3. Remove 10 n1 from A1 and transfer to the adjacent well in the next column (B1) and mix. 4. Remove 10 n1 from B1 and transfer to the next well in the first column (B2) and mix. 5. Repeat this dilution pattern through well H1 and leave the last well (H2) as DMSO only. 6. Remove 4 n1 of diluted compounds and add to 96 n1 of 1× Assay Buffer in a 96-well plate making 4× compound dilutions. Kinase Reaction: 1. Add 2.5 μl of 4× compound dilutions from the first column of the 96-well plate to every other well of column 1 of a 384-well plate with an 8-channel pipette. Repeat for columns 2 and 3. 2. Add 2.5 n1 of 4× compound dilutions from the second column of the 96-well plate to the empty wells of column 1 of the 384-well plate with an 8-channel pipette. Repeat for columns 2 and 3. Note: This procedure aligns the compound dilutions in order of concentration. 3. Add 2.5 n1 of 4× Enzyme/Substrate Solution to all columns 1-6. 4. Preincubate for 30 min. at RT (shaker). 5. Add 5 n1 of ATP Solution to all wells to start reactions. 6. Shake the assay plate on a plate shaker for 30 seconds. 7. Incubate the assay plate for one hour at room temperature (20-25° C.). Stop Step and Fluorescence Detection: 1. Add 10 n1 of Antibody/EDTA Solution to each well in columns 1-9. 2. Shake the assay plate on a plate shaker for 30 seconds. 3. Incubate the assay plate for one hour at room temperature (20-25° C.). 4. Measure the GFP (FRET) and terbium (reference) emission signals on a fluorescence plate reader (e.g. Perkin Elmer Envision). Data Analysis: 1. Calculate the emission ratio for each sample by dividing the GFP (FRET) signal by the terbium (reference) signal. 2. Plot the concentration of each compound versus the emission ratio. Determine the concentration of compound required to reach 50% of the maximum signal (IC50). Determination of IC50 values can be obtained by curve fitting (sigmoidal dose response, variable slope) using Prism software from GraphPad). Inhibition of Proliferation: CyQuant PC-3 Description:
The CyQuant NF assay is based on measurement of cellular DNA content via fluorescent dye binding. Because cellular DNA content is highly regulated, it is closely proportional to cell number. […]

T1 sequence (P42345 1360-2549 limits assumed): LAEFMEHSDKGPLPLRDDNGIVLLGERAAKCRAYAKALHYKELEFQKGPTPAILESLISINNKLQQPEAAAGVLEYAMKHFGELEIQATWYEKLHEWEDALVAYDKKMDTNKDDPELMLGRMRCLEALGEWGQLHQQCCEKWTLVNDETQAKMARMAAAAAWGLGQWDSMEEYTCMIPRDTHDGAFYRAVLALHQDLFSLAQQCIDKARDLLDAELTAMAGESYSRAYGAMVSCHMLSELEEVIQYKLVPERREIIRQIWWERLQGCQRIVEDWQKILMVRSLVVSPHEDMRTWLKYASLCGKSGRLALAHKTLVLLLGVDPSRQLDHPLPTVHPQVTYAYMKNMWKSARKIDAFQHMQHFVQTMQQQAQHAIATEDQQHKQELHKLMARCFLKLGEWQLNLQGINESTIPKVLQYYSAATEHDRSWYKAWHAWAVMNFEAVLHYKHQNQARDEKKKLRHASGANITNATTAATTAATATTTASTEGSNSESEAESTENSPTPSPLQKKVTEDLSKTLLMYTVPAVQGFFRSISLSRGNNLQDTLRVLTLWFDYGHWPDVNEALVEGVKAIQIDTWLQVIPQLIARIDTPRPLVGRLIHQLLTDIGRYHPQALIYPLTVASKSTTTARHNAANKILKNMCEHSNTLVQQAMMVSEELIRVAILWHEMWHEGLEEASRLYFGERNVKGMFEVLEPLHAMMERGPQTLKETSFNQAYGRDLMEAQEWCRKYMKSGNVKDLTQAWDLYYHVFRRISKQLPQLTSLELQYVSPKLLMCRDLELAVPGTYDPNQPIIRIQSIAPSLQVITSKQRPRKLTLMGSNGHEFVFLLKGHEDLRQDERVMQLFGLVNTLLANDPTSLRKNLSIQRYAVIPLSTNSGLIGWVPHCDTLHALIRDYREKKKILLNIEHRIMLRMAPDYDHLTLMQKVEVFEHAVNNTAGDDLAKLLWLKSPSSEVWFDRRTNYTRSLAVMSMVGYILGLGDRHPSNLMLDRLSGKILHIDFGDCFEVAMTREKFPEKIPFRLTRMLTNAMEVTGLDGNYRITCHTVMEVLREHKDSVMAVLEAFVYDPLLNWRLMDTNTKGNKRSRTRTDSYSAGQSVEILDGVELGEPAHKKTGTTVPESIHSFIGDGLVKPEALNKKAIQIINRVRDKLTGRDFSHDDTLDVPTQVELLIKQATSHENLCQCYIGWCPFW

Structure (SMILES) | IC50 (FRAP1 (mTOR) kinase) [nM] | EC50 (PC-3 cells) [nM]
CCNc1ccc(-c2nn(C(C)C)c3c2CCCc2nc(NC(C)=O)sc2-3)cn1 [Example B-01, N-[3-(6-Ethylamino-pyridin-3-yl)-1-isopropyl-1,4,5,6-tetrahydro-9-thia-1,2,7-triaza-cyclopenta[e]azulen-8-yl]-acetamide] | 151 | 308
CNc1ccc(-c2nn(CCOC)c3c2CCCc2nc(NC(C)=O)sc2-3)cn1 [Example B-03, N-[1-(2-Methoxy-ethyl)-3-(6-methylamino-pyridin-3-yl)-1,4,5,6-tetrahydro-9-thia-1,2,7-triaza-cyclopenta[e]azulen-8-yl]-acetamide] | 87 | 263
CNc1ccc(-c2nn(C(C)C)c3c2CCCc2nc(NC(C)=O)sc2-3)cn1 [Example B-05, N-[1-Isopropyl-3-(6-methylamino-pyridin-3-yl)-1,4,5,6-tetrahydro-9-thia-1,2,7-triaza-cyclopenta[e]azulen-8-yl]-acetamide] | 24 | 95
CNc1ccc(-c2nn(-c3ccccc3C)c3c2CCCc2nc(NC(C)=O)sc2-3)cn1 [Example B-06, N-[3-(6-Methylamino-pyridin-3-yl)-1-o-tolyl-1,4,5,6-tetrahydro-9-thia-1,2,7-triaza-cyclopenta[e]azulen-8-yl]-acetamide] | 36 | 66
CCNc1ccc(-c2nn(-c3ccccc3C)c3c2CCCc2nc(NC(C)=O)sc2-3)cn1 [Example B-07, N-[3-(6-Ethylamino-pyridin-3-yl)-1-o-tolyl-1,4,5,6-tetrahydro-9-thia-1,2,7-triaza-cyclopenta[e]azulen-8-yl]-acetamide] | 55 | 128
CC(=O)Nc1nc2c(s1)-c1c(c(-c3ccc(C)nc3)nn1C(C)C)CCC2 [Example B-09, N-[1-Isopropyl-3-(6-methyl-pyridin-3-yl)-1,4,5,6-tetrahydro-9-thia-1,2,7-triaza-cyclopent[e]azulen-8-yl]acetamide] | 266 | 334
CC(=O)Nc1nc2c(s1)-c1c(c(-c3ccc(C)nc3)nn1-c1ccccc1C)CCC2 [Example B-11, N-[3-(6-Methyl-pyridin-3-yl)-1-o-tolyl-1,4,5,6-tetrahydro-9-thia-1,2,7-triaza-cyclopent[e]azulen-8-yl]-acetamide] | 805 | 476
CC(=O)Nc1nc2c(s1)-c1c(c(-c3ccc(C)nc3)nn1C1CCN(C3CC3)CC1)CCC2 [Example B-12, N-[1-(1-Cyclopropyl-piperidin-4-yl)-3-(6-methyl-pyridin-3-yl)-1,4,5,6-tetrahydro-9-thia-1,2,7-triaza-cyclopent[e]azulen-8-yl]acetamide] | 31 | 127
CC(=O)Nc1nc2c(s1)-c1c(c(-c3ccc(C)nc3)nn1-c1ccccc1F)CCC2 [Example B-17, N-[1-(2-Fluoro-phenyl)-3-(6-methyl-pyridin-3-yl)-1,4,5,6-tetrahydro-9-thia-1,2,7-triaza-cyclopenta[e]azulen-8-yl]-acetamide] | 53 | 114
C=CCn1nc(-c2ccc(C)nc2)c2c1-c1sc(NC(C)=O)nc1CCC2 [Example B-25] | 899 | 437
CNc1ccc(-c2nn(C(C)C)c3c2CCCc2nc(NC(=O)N(C)C)sc2-3)cn1 [Example B-27] | 501 | 328
CNc1ccc(-c2nn(-c3ccccc3Cl)c3c2CCCc2nc(NC(C)=O)sc2-3)cn1 [Example B-28, N-[1-(2-Chloro-phenyl)-3-(6-methylamino-pyridin-3-yl)-1,4,5,6-tetrahydro-9-thia-1,2,7-triaza-cyclopenta[e]azulen-8-yl]-acetamide] | 50 | 70
CC(C)n1nc(-c2ccc(N)nc2)c2c1-c1sc(NC(=O)N(C)C)nc1CCC2 [Example B-29] | 200 | 276
CCCn1nc(-c2ccc(N)nc2)c2c1-c1sc(NC(=O)N(C)C)nc1CCC2 [Example B-33] | 116 | 310
CCn1nc(-c2ccc(N)nc2)c2c1-c1sc(NC(=O)N(C)C)nc1CCC2 [Example B-35] | 219 | 408
